The subject of experiment [1] is human sense of taste. The experiment can be described thus: Sugar-like taste quality enhancement of Stevia sweeteners by steviol glycoside additives, taste test by trained individual.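 For Taste change of Stevia Sweetener JSS (380 ppm) with Steviol Glycoside Additive: code −B means less bitterness.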 In kind it is in vivo. The settings on record: for Taste change of Stevia Sweetener REBA (303 ppm) with Steviol Glycoside Additive / Taste change of Stevia Sweetener JSS (380 ppm) with Steviol Glycoside Additive / Taste change of Stevia Sweetener REBD (303 ppm) with Steviol Glycoside Additive: additive at or below its sweetness recognition threshold concentration, 5% sucrose equivalence, water, room temperature; for Taste change of Stevia Sweetener REBA (303 ppm) with Steviol Glycoside Additive: 97% pure rebaudioside A 303 ppm; for Taste change of Stevia Sweetener REBD (303 ppm) with Steviol Glycoside Additive: rebaudioside D 303 ppm; for sugar-like taste quality enhancement effect: mostly in 5% SE rebaudioside A, compared with compound 1. As to the method:
A steviol glycoside is added in an amount at or below sweetness recognition threshold concentration to a solution of water and a Stevia sweetener. The solution is maintained at room temperature. Each sample is taste tested by a trained individual, as described in Example 1, in duplicate. Preferably no more than ten steviol glycosides are tested per day to avoid taste fatigue. Each sample was taken at least 1.5 hours following eating or drinking
The Stevia sweeteners used in this study were 97% pure rebaudioside A, JSS, and rebaudioside D.
The steviol glycosides were used in at or below sweetness recognition threshold concentrations. […]

The subject of experiment [2] is human sense of taste. The experiment can be described thus: Determination of sweetness recognition threshold concentration by trained taste tester. In kind it is in vivo. Particulars: in water at room temperature; for minimal effective concentration: Homo sapiens, read-out: Sweetness recognition threshold Level. As for the experimental part:
The term “sweetness recognition threshold concentration,” as generally used herein, is the lowest known concentration of a sweet compound that is perceivable by the human sense of taste. The sweetness recognition threshold level is specific for a particular compound, and varies based on temperature, matrix, ingredients and/or flavor system. The sweetness recognition threshold concentrations measurements and 5% sucrose equivalence measurements described herein were determined in water at room temperature.
A sip (approximately 2-5 mL) of control sample, including but not limited to water, was tasted and swallowed by a trained taste tester. After allowing a 15-25 second interval to pass, a second sip of the control is tasted and swallowed. The taste properties of the control are determined and recorded by the trained taste tester. An unknown sample is then tasted and swallowed in the same manner, allowing a 15-25 second interval between the two sips. Preferably no more than ten additives are tested per day to avoid taste fatigue. Each sample was taken at least 1.5 hours following eating or drinking The sweetness recognition thresholds concentration of 21 steviol glycosides were determined in this manner, and are shown in Table 1.

Where [3] appears, read: additive at 500 ppm, all three control 5% SE Stevia sweeteners.

Entries after “also recorded” stand apart in the source; their conditions may differ.

On to `C=C1C[C@@]23CC[C@H]4[C@@](C)(CCC[C@@]4(C)C(=O)O[C@@H]4O[C@H](CO)[C@@H](O)[C@H](O)[C@H]4O[C@@H]4O[C@H](CO)[C@@H](O)[C@H](O)[C@H]4O)[C@@H]2CC[C@]1(O[C@@H]1O[C@H](CO)[C@@H](O)[C@H](O[C@@H]2O[C@H](CO)[C@@H](O)[C@H](O)[C@H]2O)[C@H]1O[C@@H]1O[C@H](CO)[C@@H](O)[C@H](O)[C@H]1O)C3` [Rebaudioside D, rebaudioside D], for which the “Taste change of Stevia Sweetener REBA (303 ppm) with Steviol Glycoside Additive” value (from here on “Taste change of Stevia Sweetener REBA”) with human sense of taste [1] is on record as “N (N: no difference in presence or absence of steviol glycoside additive;)”. Moreover, the “Taste change of Stevia Sweetener JSS (380 ppm) with Steviol Glycoside Additive” value (from here on “Taste change of Stevia Sweetener JSS”) in the experiment with human sense of taste [1] was “N (N: no difference in presence or absence of steviol glycoside additive;)”. In addition, the “Sweetness recognition threshold Level” value with human sense of taste [2] is 25 ppm; in the experiment on human sense of taste [2] (listed as rebaudioside D), “about 25 ppm”.
On to `C[C@@]12CCC[C@@](C)(C(=O)O)[C@H]1CC[C@@]13C[C@@](OC4OC(CO)C(O)C(OC5OC(CO)C(O)C(O)C5O)C4OC4OC(CO)C(O)C(O)C4O)(CC[C@H]12)[C@](C)(O)C3` (stereo partly shown) [Compound 1], for which, in the experiment with human sense of taste [1] (setting [3]), the “bitterness, sweet lingering, off-taste note” value is recorded as “no bitterness, sweet lingering or off-taste note”; the “slightly sweeter profile (increase in sucrose equivalence)” value is on record as “ca. 1 % SE”; the “sugar-like tasting quality enhancement” value is recorded as “significantly enhanced all three control 5% SE Stevia sweeteners to a much superior sugar-like tasting quality”. In the experiment with human sense of taste [1], the “Taste change of Stevia Sweetener REBA” value was “++, ASLC,; also recorded: +S, −B”; the “Taste change of Stevia Sweetener JSS” value is listed as “++, ASLC,; also recorded: +S, −B”; the “Taste change of Stevia Sweetener REBD (303 ppm) with Steviol Glycoside Additive” value (“Taste change of Stevia Sweetener REBD” for short) is on record as “++, ASLC,; also recorded: +S, −B”. In the experiment with human sense of taste [2], the minimal effective concentration was found to be 500 µg/mL.
On to `C=C1C[C@@]23CC[C@H]4[C@@](C)(CCC[C@@]4(C)C(=O)O[C@@H]4O[C@H](CO)[C@@H](O)[C@H](O)[C@H]4O)[C@@H]2CC[C@]1(O[C@@H]1O[C@H](CO)[C@@H](O)[C@H](O)[C@H]1O[C@@H]1O[C@@H](C)[C@H](O)[C@@H](O)[C@H]1O)C3` [Dulcoside A, dulcoside A], for which, in the experiment with human sense of taste [1], the “Taste change of Stevia Sweetener REBA” value is listed as “N (N: no difference in presence or absence of steviol glycoside additive;)”, the “Taste change of Stevia Sweetener JSS” value is recorded as “N (N: no difference in presence or absence of steviol glycoside additive;)” and the “Taste change of Stevia Sweetener REBD” value is given as “N (N: no difference in presence or absence of steviol glycoside additive;)”. Moreover, in the experiment on human sense of taste [2], the “Sweetness recognition threshold Level” value amounted to 50 ppm.
Turning to `C=C1C[C@@]23CC[C@H]4[C@@](C)(CCC[C@@]4(C)C(=O)O[C@@H]4O[C@H](CO)[C@@H](O)[C@H](O)[C@H]4O)[C@@H]2CC[C@]1(O[C@@H]1O[C@H](CO)[C@@H](O)[C@H](O[C@@H]2O[C@H](CO)[C@@H](O)[C@H](O)[C@H]2O)[C@H]1O[C@@H]1O[C@H](CO)[C@@H](O)[C@H](O)[C@H]1O)C3` [Rebaudioside A, rebaudioside A], in the experiment with human sense of taste [1], the “Taste change of Stevia Sweetener JSS” value is recorded as “N (N: no difference in presence or absence of steviol glycoside additive;)” and the “Taste change of Stevia Sweetener REBD” value is given as “N (N: no difference in presence or absence of steviol glycoside additive;)”. Also, in the experiment with human sense of taste [2], the “Sweetness recognition threshold Level” value turned out to be 12.6 ppm. Further, the “Sweetness recognition threshold Level” value with human sense of taste [2] (listed as rebaudioside A) is listed as “about 12.6 ppm”.
On to rebaudioside F, for which, in the experiment with human sense of taste [1], the “Taste change of Stevia Sweetener REBA” value is reported as “N (N: no difference in presence or absence of steviol glycoside additive;)”, the “Taste change of Stevia Sweetener JSS” value is recorded as “N (N: no difference in presence or absence of steviol glycoside additive;)” and the “Taste change of Stevia Sweetener REBD” value was “N (N: no difference in presence or absence of steviol glycoside additive;)”. In addition, in the experiment on human sense of taste [2], the “Sweetness recognition threshold Level” value is listed as 25 ppm.
Consider rebaudioside B, for which, in the experiment with human sense of taste [1], the “Taste change of Stevia Sweetener REBA” value was “N (N: no difference in presence or absence of steviol glycoside additive;)”, the “Taste change of Stevia Sweetener JSS” value is “N (N: no difference in presence or absence of steviol glycoside additive;)” and the “Taste change of Stevia Sweetener REBD” value is recorded as “N (N: no difference in presence or absence of steviol glycoside additive;)”. The “Sweetness recognition threshold Level” value with human sense of taste [2] is 25 ppm.
Consider `C=C1C[C@@]23CC[C@H]4[C@@](C)(CCC[C@@]4(C)C(=O)O[C@@H]4O[C@H](CO)[C@@H](O)[C@H](O)[C@H]4O)[C@@H]2CC[C@]1(O[C@@H]1O[C@H](CO)[C@@H](O)[C@H](O)[C@H]1O[C@@H]1O[C@H](CO)[C@@H](O)[C@H](O)[C@H]1O)C3` [Stevioside, stevioside], for which, in the experiment on human sense of taste [1], the “Taste change of Stevia Sweetener REBA” value is reported as “N (N: no difference in presence or absence of steviol glycoside additive;)” and the “Taste change of Stevia Sweetener REBD” value was “N (N: no difference in presence or absence of steviol glycoside additive;)”. Moreover, the minimal effective concentration in the experiment with human sense of taste [2] came out at 25 µg/mL.
Regarding `CC1=C[C@@]23CC[C@H]4[C@@](C)(CCC[C@@]4(C)C(=O)O)[C@@H]2CC[C@]1(OC1OC(CO)C(O)C(OC2OC(CO)C(O)C(O)C2O)C1OC1OC(CO)C(O)C(O)C1O)C3` (stereo partly shown) [Compound 2], in the experiment with human sense of taste [1], the “Taste change of Stevia Sweetener REBA” value was “++, −SL, −B”; the “Taste change of Stevia Sweetener JSS” value was “DB (DB: Different pattern of bitterness;)”; the “Taste change of Stevia Sweetener REBD” value was “N(+), W”; the “sugar-like taste quality enhancement effect” value is on record as “similar, but smaller positive sugar-like taste quality enhancement effect”. For the same molecule, the minimal effective concentration in the experiment on human sense of taste [2] was 35 µg/mL.
As to `C[C@@]12CCC[C@@](C)(C(=O)OC3OC(CO)C(O)C(O)C3O)[C@H]1CC[C@]13C=C(CO)[C@](OC4OC(CO)C(O)C(OC5OC(CO)C(O)C(O)C5O)C4OC4OC(CO)C(O)C(O)C4O)(CC[C@H]12)C3` (stereo partly shown) [Compound 5], the sugar-like taste quality result in the experiment on human sense of taste [1] (additive at 250 ppm, rebaudioside A) is “improve the sugar-like taste quality of rebaudioside A”. In the experiment with human sense of taste [1], the “Taste change of Stevia Sweetener REBA” value is recorded as “+, −B, W”; the “Taste change of Stevia Sweetener JSS” value is reported as “N (N: no difference in presence or absence of steviol glycoside additive;)”; the “Taste change of Stevia Sweetener REBD” value is given as “N (N: no difference in presence or absence of steviol glycoside additive;)”; the “sugar-like taste quality enhancement effect” value is given as “similar, but smaller positive sugar-like taste quality enhancement effect”. Besides, in the experiment on human sense of taste [2], the minimal effective concentration stood at 250 µg/mL.
Regarding `C[C@H](CC[C@@H](O[C@@H]1O[C@H](CO[C@@H]2O[C@H](CO)[C@@H](O)[C@H](O)[C@H]2O)[C@@H](O)[C@H](O)[C@H]1O[C@@H]1O[C@H](CO)[C@@H](O)[C@H](O)[C@H]1O)C(C)(C)O)[C@H]1CC[C@@]2(C)[C@@H]3CC=C4[C@@H](CC[C@H](O[C@@H]5O[C@H](CO[C@@H]6O[C@H](CO)[C@@H](O)[C@H](O)[C@H]6O)[C@@H](O)[C@H](O)[C@H]5O)C4(C)C)[C@]3(C)[C@H](O)C[C@]12C` [Mogroside V, mogroside V], in the experiment on human sense of taste [1], the “Taste change of Stevia Sweetener REBA” value is “N (N: no difference in presence or absence of steviol glycoside additive;)”, the “Taste change of Stevia Sweetener JSS” value is “N (N: no difference in presence or absence of steviol glycoside additive;)” and the “Taste change of Stevia Sweetener REBD” value is on record as “~+S (~+S: Slightly more detected sweetness intensity (~0.5% Sucrose Equivalence);)”. Moreover, the “Sweetness recognition threshold Level” value in the experiment with human sense of taste [2] is 20 ppm. In the experiment on human sense of taste [2] (listed as mogroside V), the “Sweetness recognition threshold Level” value is reported as “about 15 ppm”.
For `C=C1C[C@@]23CC[C@H]4[C@@](C)(CCC[C@@]4(C)C(=O)O[C@@H]4O[C@H](CO)[C@@H](O)[C@H](O)[C@H]4O)[C@@H]2CC[C@]1(O[C@@H]1O[C@H](CO)[C@@H](O)[C@H](O)[C@H]1O)C3` [Rubusoside, rubusoside], in the experiment on human sense of taste [1], the “Taste change of Stevia Sweetener REBA” value is “N(+) (N(+): same as “N” but slightly more;)”, the “Taste change of Stevia Sweetener JSS” value is recorded as “N (N: no difference in presence or absence of steviol glycoside additive;)” and the “Taste change of Stevia Sweetener REBD” value is “N (N: no difference in presence or absence of steviol glycoside additive;)”. In addition, the minimal effective concentration in the experiment on human sense of taste [2] turned out to be 50 µg/mL.
On to `C=C1C[C@@]23CC[C@H]4[C@@](C)(CCC[C@@]4(C)C(=O)OC4OC(C(=O)O)C(O)C(O)C4O)[C@@H]2CC[C@]1(O)C3` (stereo partly shown) [Steviol glucuronide, steviol glucoronide], for which the bitterness result in the experiment with human sense of taste [1] (additive at 85 ppm, 5% SE JSS) is given as “less bitterness”. For the same molecule, in the experiment on human sense of taste [1], the “Taste change of Stevia Sweetener REBA” value was “N (N: no difference in presence or absence of steviol glycoside additive;)”, the “Taste change of Stevia Sweetener JSS” value was “−B” and the “Taste change of Stevia Sweetener REBD” value is “N (N: no difference in presence or absence of steviol glycoside additive;)”. In the experiment with human sense of taste [2], the minimal effective concentration stood at 85 µg/mL.

The values are drawn from patent US20130064955A1, “NATURAL SWEETENED COMPOSITIONS AND METHODS FOR PREPARING THE SAME” (priority 2011, published 2013).
